Laboratory results published in the NIST ThermoML archive (doi:10.1021/acs.jced.5b00988).
“And” between values parts separate entries of the source, which are not always exact repeats. Equal values may be shown once. ± gives the expanded uncertainty stated by the source.

Experiments:
[1] = wn = mass fraction of the nth substance listed; settings: 298.15 K, 102.5 kPa, Liquid; for viscosity: Concentric cylinders viscometry; for mass density: Vibrating tube method
[2] = Crystal; visual observation

## O=[PH2][O-].[Na+] [sodium phosphinate] + O
[1]; w1 = 0.5196
  viscosity: 17.6 ± 0.38 mPa·s
  mass density: 1394 ± 3 kg/m3

## [Cl-].[Na+] [sodium chloride] + O
[1]; w1 = 0.2642
  viscosity: 1.5 ± 0.03 mPa·s and 1.7 ± 0.04 mPa·s
  mass density: 1194 ± 2 kg/m3 and 1214 ± 2 kg/m3

## O=[PH2][O-].O=[PH2][O-].[Zn+2] [zinc(II) phosphinate]
[2]
  Triple point temperature: 446.15 ± 5 K

## O=[PH2][O-].O=[PH2][O-].[Zn+2] [zinc(II) phosphinate] + O
[1]; w2 = 0.5196
  viscosity: 2.04 ± 0.04 mPa·s
[1]; w1 = 0.1861
  mass density: 1157 ± 2 kg/m3
